Test results from patent US20070196421A1, “Soft tissue implants and drug combination compositions, and use thereof” (priority 2005, published 2007).
Counter-ions that a name gives are not always drawn.

Assays:
[1] = test system: multiple drug-resistant strains of C. glabrata; experiment: antifungal activity against C. glabrata; assay type: cell-based; details: antifungal agent used in combination with the manganese compound
[2] = cited from earlier work; for solubility in alcohol / ethanol (in words): alcohol or ethanol
[3] = test system: immunosuppressive agents, such as cyclosporine; experiment: potency of immunosuppressive agents (enhancer effect)
[4] = test system: carrageenan-induced paw edema; experiment: Rat carrageenan-induced paw edema model: paw swelling; assay type: in vivo; details: local injection in paw at T-1 hr, Tmax = 6 hrs
Description: (§1) A dose-range finding study was performed to determine the anti-inflammatory activity of various ratios of methyl prednisolone acetate and amoxapine in a rat carrageenan-induced paw edema model. […] The molar ratio of methyl prednisolone acetate to amoxapine ranged from 1:1 to 1:300, using total doses of methyl prednisolone acetate of 0.01, 0.03 or 0.1 mg/kg.
(§2) The test agent (a combination of methyl prednisolone acetate and amoxapine), vehicle control, or reference agents (methyl prednisolone acetate, amoxapine, or Depo-Medrol®) were administered in the left hind foot pad of rats. After 60 minutes, paw edema was induced by injection of 100 μl of 1% carrageenan in the same foot pad. The paw volume was measured with a water displacement plethysmometer immediately prior to test agent injection (T−1h), at the time of carrageenan injection (T0h), and at T6h. Animals were euthanized by carbon dioxide inhalation. Paw tissue samples were collected and flash frozen in liquid nitrogen. Samples were assayed for TNF-α by enzyme-linked immunoassay (ELISA).

TNF-α = experiment: Rat carrageenan-induced paw edema model: TNF-α in paw tissue by ELISA; assay type: in vivo
Description: as §1, §2

glucocorticoid receptor = glucocorticoid receptor trafficking (mechanism study); assay type: cell-based
[5] = test system: GRE reporter plasmid in T cells; experiment: transactivation of a transfected GRE reporter plasmid in T cells; assay type: cell-based
NFAT = NFAT activation, translocation and transactivation; assay type: cell-based
AP1 = AP1 activation; assay type: cell-based
p38 = p38 activation; assay type: cell-based
JNK = JNK activation; assay type: cell-based
E. coli UB1005 C498 = experiment: MIC by microtitre broth dilution; assay type: cell-based; details: Gram−, wt, Mueller Hinton broth, 37° C., 24 h
Description: (§3) MIC assays were conducted essentially as described by Amsterdam, D. 1996, “Susceptibility testing of antimicrobials in liquid media”, p. 52-111, in Loman, V., ed. Antibiotics in laboratory medicine, 4th ed. Williams and Wilkins, Baltimore, Md.

[6] = test system: K. pneumoniae ATCC13883 C238; experiment: MIC by microtitre broth dilution; assay type: cell-based; details: Gram−, wt, Mueller Hinton broth, 37° C., 24 h
Description: as §3

[7] = test system: P. aeruginosa PAE/K799 H187; experiment: MIC by microtitre broth dilution; assay type: cell-based; details: Gram−, wt, Mueller Hinton broth, 37° C., 24 h
Description: as §3

S. aureus ATCC25923 C622 = experiment: MIC by microtitre broth dilution; assay type: cell-based; details: Gram+, wt, Mueller Hinton broth, 37° C., 24 h
Description: as §3

S. epidermidis C621 = experiment: MIC by microtitre broth dilution; assay type: cell-based; details: Gram+, wt, Mueller Hinton broth, 37° C., 24 h
Description: as §3

S. pyogenes C721 = experiment: MIC by microtitre broth dilution; assay type: cell-based; details: Gram+, wt, Todd Hewitt broth, 37° C., 24 h
Description: as §3

CCC(C)n1ncn(-c2ccc(N3CCN(c4ccc(OC[C@H]5CO[C@](Cn6cncn6)(c6ccc(Cl)cc6Cl)O5)cc4)CC3)cc2)c1=O (mixture of isomers) [itraconazole]
enhancement of antifungal activity by the manganese compound [1]: enhances

Nc1ccc(/N=N\c2ccccc2)c(N)n1 [phenazopyridine-HCl]
solubility in water (in words) [2]: slightly soluble

CNCCCC12CCC(c3ccccc31)c1ccccc12 [maprotiline, Maprotiline]
effect on the potency of immunosuppressive agents [3]: increases the potency

CC(=O)OCC(=O)[C@@]1(O)CC[C@H]2[C@@H]3C[C@H](C)C4=CC(=O)C=C[C@]4(C)[C@H]3[C@@H](O)C[C@@]21C [MePredAc, methyl prednisolone acetate]
Edema ± SEM ([4]; 0.01 mg/kg): 32.6 ± 5.3%
Edema ± SEM ([4]; 0.03 mg/kg): 26.2 ± 7.0%
Edema ± SEM ([4]; 0.1 mg/kg): 12.2 ± 1.8%
TNF-α ± SEM (TNF-α; 0.01 mg/kg): 35.9 ± 11.3 pg/g
TNF-α ± SEM (TNF-α; 0.03 mg/kg): 19.2 ± 3.1 pg/g
TNF-α ± SEM (TNF-α; 0.1 mg/kg): 28.0 ± 6.0 pg/g

Fc1ccc([C@@H]2CCNC[C@H]2COc2ccc3c(c2)OCO3)cc1 [paroxetine]
glucocorticoid receptor trafficking (glucocorticoid receptor): does not promote
potentiation of prednisolone's ability to transactivate a GRE reporter plasmid [5]: does not promote glucocorticoid receptor trafficking or potentiate
NFAT activation, translocation and transactivation (NFAT): represses
AP1 activation (AP1): inhibits
p38 activation (p38): inhibition
JNK activation (JNK): inhibition

Nc1ccc(/N=N/c2ccccc2)c(N)n1 [Phenazopyridine base, phenazopyridine]
solubility in alcohol / ethanol (in words) [2]: slightly soluble
solubility in water (in words) [2]: slightly soluble

CN(C)C(=O)C(CCN1CCC(O)(c2ccc(Cl)cc2)CC1)(c1ccccc1)c1ccccc1 [Loperamide]
effect on the potency of immunosuppressive agents [3]: increase the potency

CN(Cc1cnc2nc(N)nc(N)c2n1)c1ccc(C(=O)N[C@@H](CCC(=O)O)C(=O)O)cc1 [methotrexate]
Minimum inhibitory concentration (E. coli UB1005 C498): N
Minimum inhibitory concentration [6]: 10^−6 Molar
Minimum inhibitory concentration [7]: N
Minimum inhibitory concentration (S. aureus ATCC25923 C622): 10^−5 Molar
Minimum inhibitory concentration (S. epidermidis C621): N
Minimum inhibitory concentration (S. pyogenes C721): 10^−6 Molar

CCN(CC)C(C)CN1c2ccccc2Sc2ccccc21 (stereo not drawn) [Ethopropazine, ethopropazine]
effect on the potency of immunosuppressive agents [3]: increases the potency

Nc1ncnc2c1ccn2[C@@H]1O[C@H](CO)[C@@H](O)[C@H]1O [tubercidin]
Minimum inhibitory concentration (E. coli UB1005 C498): N
Minimum inhibitory concentration [6]: N
Minimum inhibitory concentration [7]: N
Minimum inhibitory concentration (S. aureus ATCC25923 C622): N
Minimum inhibitory concentration (S. epidermidis C621): N
Minimum inhibitory concentration (S. pyogenes C721): N

Oc1cc(Cl)ccc1Oc1ccc(Cl)cc1Cl [triclosan, Triclosan]
effect on the potency of immunosuppressive agents [3]: increases the potency

OC(Cn1cncn1)(Cn1cncn1)c1ccc(F)cc1F [fluconazole]
enhancement of antifungal activity by the manganese compound [1]: enhances

O=C1c2c(O)ccc(O)c2C(=O)c2c(NCCNCCO)ccc(NCCNCCO)c21 [mitoxantrone]
Minimum inhibitory concentration (E. coli UB1005 C498): 10^−5 Molar
Minimum inhibitory concentration [6]: 10^−6 Molar
Minimum inhibitory concentration [7]: 10^−5 Molar
Minimum inhibitory concentration (S. aureus ATCC25923 C622): 10^−5 Molar
Minimum inhibitory concentration (S. epidermidis C621): 10^−5 Molar
Minimum inhibitory concentration (S. pyogenes C721): 10^−6 Molar

CN(C/C=C/C#CC(C)(C)C)Cc1cccc2ccccc12.Cl [terbinafine, terbinafine hydrochloride]
enhancement of antifungal activity by the manganese compound [1]: enhances

COc1cc([C@@H]2c3cc4c(cc3[C@@H](O[C@@H]3O[C@@H]5CO[C@@H](C)O[C@H]5[C@H](O)[C@H]3O)[C@H]3COC(=O)[C@H]23)OCO4)cc(OC)c1O [etoposide]
Minimum inhibitory concentration (E. coli UB1005 C498): N
Minimum inhibitory concentration [6]: 10^−5 Molar
Minimum inhibitory concentration [7]: N
Minimum inhibitory concentration (S. aureus ATCC25923 C622): 10^−5 Molar
Minimum inhibitory concentration (S. epidermidis C621): 10^−6 Molar
Minimum inhibitory concentration (S. pyogenes C721): 10^−5 Molar

CC[C@@]1(O)C(=O)OCc2c1cc1n(c2=O)Cc2cc3ccccc3nc2-1 [camptothecin, camptothecins]
Minimum inhibitory concentration (E. coli UB1005 C498): N
Minimum inhibitory concentration [6]: N
Minimum inhibitory concentration [7]: N
Minimum inhibitory concentration (S. aureus ATCC25923 C622): N
Minimum inhibitory concentration (S. epidermidis C621): 10^−4 Molar
Minimum inhibitory concentration (S. pyogenes C721): N

NC(=O)c1ncn([C@@H]2O[C@H](CO)[C@@H](O)[C@H]2O)n1 [Ribavirin, ribavirin]
solubility in alcohol / ethanol (in words) [2]: slightly soluble

CC[C@H](C)C[C@H](C)CCCCCCCCC(=O)N[C@H]1C[C@@H](O)[C@@H](NCCN)NC(=O)[C@@H]2[C@@H](O)CCN2C(=O)[C@H]([C@H](O)CCN)NC(=O)[C@H]([C@H](O)[C@@H](O)c2ccc(O)cc2)NC(=O)[C@@H]2C[C@@H](O)CN2C(=O)[C@H]([C@@H](C)O)NC1=O [caspofungin]
enhancement of antifungal activity by the manganese compound [1]: enhances

N.N.[Cl][Pt][Cl] [cisplatin]
Minimum inhibitory concentration (E. coli UB1005 C498): N
Minimum inhibitory concentration [6]: N
Minimum inhibitory concentration [7]: 10^−4 Molar
Minimum inhibitory concentration (S. aureus ATCC25923 C622): N
Minimum inhibitory concentration (S. epidermidis C621): N
Minimum inhibitory concentration (S. pyogenes C721): N

O=c1[nH]cc(F)c(=O)[nH]1 [5-fluorouracil, 5-FU]
Minimum inhibitory concentration (E. coli UB1005 C498): 10^−6 Molar
Minimum inhibitory concentration [6]: 10^−6 Molar
Minimum inhibitory concentration [7]: 10^−5 Molar
Minimum inhibitory concentration (S. aureus ATCC25923 C622): 10^−7 Molar
Minimum inhibitory concentration (S. epidermidis C621): 10^−7 Molar
Minimum inhibitory concentration (S. pyogenes C721): 10^−4 Molar

Sc1ncnc2nc[nH]c12 [6-mercaptopurine]
Minimum inhibitory concentration (E. coli UB1005 C498): N
Minimum inhibitory concentration [6]: N
Minimum inhibitory concentration [7]: N
Minimum inhibitory concentration (S. aureus ATCC25923 C622): N
Minimum inhibitory concentration (S. epidermidis C621): N
Minimum inhibitory concentration (S. pyogenes C721): N

Sc1ncc2[nH]cnc2n1 [2-mercaptopurine]
Minimum inhibitory concentration (E. coli UB1005 C498): N
Minimum inhibitory concentration [6]: N
Minimum inhibitory concentration [7]: N
Minimum inhibitory concentration (S. aureus ATCC25923 C622): N
Minimum inhibitory concentration (S. epidermidis C621): N
Minimum inhibitory concentration (S. pyogenes C721): N

NC(=O)NO [hydroxyurea]
Minimum inhibitory concentration (E. coli UB1005 C498): N
Minimum inhibitory concentration [6]: N
Minimum inhibitory concentration [7]: 10^−4 Molar
Minimum inhibitory concentration (S. aureus ATCC25923 C622): N
Minimum inhibitory concentration (S. epidermidis C621): N
Minimum inhibitory concentration (S. pyogenes C721): 10^−4 Molar

Nc1ccn([C@@H]2O[C@H](CO)[C@@H](O)[C@@H]2O)c(=O)n1 [Cytarabine, cytarabine]
Minimum inhibitory concentration (E. coli UB1005 C498): N
Minimum inhibitory concentration [6]: N
Minimum inhibitory concentration [7]: N
Minimum inhibitory concentration (S. aureus ATCC25923 C622): N
Minimum inhibitory concentration (S. epidermidis C621): N
Minimum inhibitory concentration (S. pyogenes C721): N

COc1cccc2c1C(=O)c1c(O)c3c(c(O)c1C2=O)C[C@@](O)(C(=O)CO)C[C@@H]3O[C@H]1C[C@H](N)[C@H](O)[C@H](C)O1 [doxorubicin]
Minimum inhibitory concentration (E. coli UB1005 C498): 10^−4 Molar
Minimum inhibitory concentration [6]: 10^−6 Molar
Minimum inhibitory concentration [7]: 10^−5 Molar
Minimum inhibitory concentration (S. aureus ATCC25923 C622): 10^−5 Molar
Minimum inhibitory concentration (S. epidermidis C621): 10^−6 Molar
Minimum inhibitory concentration (S. pyogenes C721): 10^−7 Molar
